Measured values reported in US11591336B2 (Relay Therapeutics, Inc., priority 2017, dated 2023).
Structures can show the parent of a compound that is named as a salt.

Target: SHP2 (Homo sapiens (Human), UniProt Q06124)
Assay: SHP2 Allosteric Inhibition Assay (DiFMUP prompt fluorescence)
Format: biochemical
Settings: 0.25 nM SHP2 activated with 0.5 μM peptide IRS1_pY1172(dPEG8)pY1222; substrate DiFMUP 100 μM; 25° C.

| Structure (SMILES) | IC50 [nM] |
| --- | --- |
| CC1(CN)CCN(c2cnc3c(N4CCCc5c(F)cccc54)n[nH]c3n2)CC1 [Compound 52] | < 1000 |
| CC1CCN(c2n[nH]c3nc(N4CCC5(CC4)CO[C@@H](C)[C@H]5N)cnc23)c2cc(F)c(C#N)cc21 (some centres unmarked) [Compound 223] | < 1000 |
| C[C@H]1c2ccccc2CN1c1n[nH]c2nc(N3CCC(C)(CN)CC3)cnc12 [Compound 170] | < 1000 |
| CC1CCN(c2n[nH]c3nc(N4CCC(C)(CN)CC4)cnc23)c2cccnc21 (single isomer, unassigned) [Compound 128] | < 1000 |
| C[C@@H]1CCN(c2n[nH]c3nc(N4CCC5(CC4)CO[C@@H](C)[C@H]5N)cnc23)c2ccc(C#N)c(F)c21 (single isomer, unassigned) [Compound 229] | < 1000 |
| C[C@@H]1OCC2(CCN(c3cnc4c(N5CCc6ccc(C#N)cc6C5)n[nH]c4n3)CC2)[C@@H]1N [Compound 286] | < 1000 |
| CC1(CN)CCN(c2cnc3c(Nc4ccccc4Cl)n[nH]c3n2)CC1 [Compound 11, 6-(4-(aminomethyl)-4-methylpiperidin-1-yl)-N-(2-chlorophenyl)-1H-pyrazolo[3,4-b]pyrazin-3-amine] | < 1000 |
| Cn1cc(-c2ccc3c(n2)CCCN3c2n[nH]c3nc(N4CCC5(CCC[C@H]5N)CC4)cnc23)cn1 [Compound 298, (R)-8-(3-(6-(1-methyl-1H-pyrazol-4-yl)-3,4-dihydro-1,5-naphthyridin-1(2H)-yl)-1H-pyrazolo[3,4-b]pyrazin-6-yl)-8-azaspiro[4.5]decan-1-amine] | < 1000 |
| C[C@@H]1OCC2(CCN(c3cnc4c(N5CCOc6nc(-c7cnn(C)c7)ccc65)n[nH]c4n3)CC2)[C@@H]1N [Compound 324] | < 1000 |
| CNC(=O)c1ccc2c(c1)[C@@H](C)CCN2c1n[nH]c2nc(N3CCC4(CC3)CO[C@@H](C)[C@H]4N)cnc12 [Compound 288, (4S)-1-{6-[(3S,4S)-4-amino-3-methyl-2-oxa-8-azaspiro[4.5]decan-8-yl]-1H-pyrazolo[3,4-b]pyrazin-3-yl}-N,4-dimethyl-1,2,3,4-tetrahydroquinoline-6-carboxamide] | < 1000 |
| COC(=O)n1nc(N2CCCc3ncccc32)c2ncc(N3CCC4(CC3)CO[C@@H](C)[C@H]4N)nc21 [Compound 253, methyl 6-[(3S,4S)-4-amino-3-methyl-2-oxa-8-azaspiro[4.5]decan-8-yl]-3-(1,2,3,4-tetrahydro-1,5-naphthyridin-1-yl)-1H-pyrazolo[3,4-b]pyrazine-1-carboxylate hydrochloride] | < 1000 |
| NC1CCCC12CCN(c1cnc3c(N4CCCc5ncccc54)n[nH]c3n1)C2 (centres unmarked) [Compound 203, 2-(3-(3,4-dihydro-1,5-naphthyridin-1(2H)-yl)-1H-pyrazolo[3,4-b]pyrazin-6-yl)-2-azaspiro[4.4]nonan-6-amine] | 1000 to 10000 |
| N[C@@H]1COCC12CCN(c1cnc3c(N4CCCc5ncccc54)n[nH]c3n1)CC2 [Compound 214] | < 1000 |
| C[C@@H]1OCC2(CCN(c3cnc4c(N5CCCc6nc(-n7cnnc7)ccc65)n[nH]c4n3)CC2)[C@@H]1N [Compound 308] | < 1000 |
| CC1(CN)CCN(c2cnc3c(N4CCCc5ncccc54)n[nH]c3n2)C1 (centres unmarked) [Compound 26, (1-(3-(3,4-dihydro-1,5-naphthyridin-1(2H)-yl)-1H-pyrazolo[3,4-b]pyrazin-6-yl)-3-methylpyrrolidin-3-yl)methanamine dihydrochloride] | < 1000 |
| c1ccc(C2CCCN2c2cnc3c(N4CCCc5ncccc54)n[nH]c3n2)cc1 (centres unmarked) [Compound 147] | ≥ 10000 |
| N[C@@H]1CCCC12CCN(c1cnc3c(N4CCCc5ncccc54)n[nH]c3n1)CC2 [Compound 212] | < 1000 |
| C[C@@H]1C[C@H](CN)CCN1c1cnc2c(N3CCCc4ncccc43)n[nH]c2n1 (racemic) [Compound 109, ((2R,4R)-1-(3-(3,4-dihydro-1,5-naphthyridin-1(2H)-yl)-1H-pyrazolo[3,4-b]pyrazin-6-yl)-2-methylpiperidin-4-yl)methanamine] | 1000 to 10000 |
| NCC1(CN)CCN(c2cnc3c(N4CCCc5ncccc54)n[nH]c3n2)CC1 [Compound 177, 1-[4-(aminomethyl)-1-[3-(1,2,3,4-tetrahydro-1,5-naphthyridin-1-yl)-1H-pyrazolo[3,4-b]pyrazin-6-yl]piperidin-4-yl]methanamine dihydrochloride] | < 1000 |

The remaining lines, values ahead:

| IC50 [nM] | Structure (SMILES) |
| --- | --- |
| 1000 to 10000 | CC1(N)CCN(c2cnc3c(Sc4ccc[nH]c4=O)n[nH]c3n2)CC1 [Compound 475, 3-((6-(4-amino-4-methylpiperidin-1-yl)-1H-pyrazolo[3,4-b]pyrazin-3-yl)thio)pyridin-2(1H)-one] |
| < 1000 | C[C@@H]1OCC2(CCN(c3cnc4c(N5CCN(C)c6nnccc65)n[nH]c4n3)CC2)[C@@H]1N [Compound 413] |
| < 1000 | CNC(=O)Cc1ccc2c(n1)CCCN2c1n[nH]c2nc(N3CCC4(CC3)CO[C@@H](C)[C@H]4N)cnc12 [Compound 425, 2-(5-{6-[(3S,4S)-4-amino-3-methyl-2-oxa-8-azaspiro[4.5]decan-8-yl]-1H-pyrazolo[3,4-b]pyrazin-3-yl}-5,6,7,8-tetrahydro-1,5-naphthyridin-2-yl)-N-methylacetamide] |
| < 1000 | C[C@@H]1OCC2(CCN(c3cnc4c(N5CCN(C)c6cc(-c7nccs7)ccc65)n[nH]c4n3)CC2)[C@@H]1N [Compound 415] |
| 1000 to 10000 | C[C@@H]1OCC2(CCN(c3cnc4c(N5CCc6cccc(C#N)c6C5)n[nH]c4n3)CC2)[C@@H]1N [Compound 359] |
| < 1000 | CCS(=O)(=O)c1cccc2c1CCCN2c1n[nH]c2nc(N3CCC4(CC3)CO[C@@H](C)[C@H]4N)cnc12 [Compound 368] |
| < 1000 | COCCN1CCN(c2n[nH]c3nc(N4CCC5(CC4)CO[C@@H](C)[C@H]5N)cnc23)c2ccc(C#N)cc21 [Compound 406] |
| < 1000 | C[C@@H]1OCC2(CCN(c3cnc4c(N5CCCc6c5cccc6S(=O)(=O)c5cnn(C)c5)n[nH]c4n3)CC2)[C@@H]1N [Compound 465] |
| < 1000 | CNC(=O)c1ccc2c(n1)[C@H](C)CCN2c1n[nH]c2nc(N3CCC4(CC3)CO[C@@H](C)[C@H]4N)cnc12 [Compound 363, (8R)-5-{6-[(3S,4S)-4-amino-3-methyl-2-oxa-8-azaspiro[4.5]decan-8-yl]-1H-pyrazolo[3,4-b]pyrazin-3-yl}-N,8-dimethyl-5,6,7,8-tetrahydro-1,5-naphthyridine-2-carboxamide] |
| 1000 to 10000 | COC(=O)CCc1ncccc1Nc1n[nH]c2nc(N3CCC(C)(N)CC3)cnc12 [Compound 495, methyl 3-[3-[[6-(4-amino-4-methyl-1-piperidyl)-1H-pyrazolo[3,4-b]pyrazin-3-yl]amino]-2-pyridyl]propanoate] |
| < 1000 | C[C@@H]1OCC2(CCN(c3cnc4c(N5CCCc6c([C@@H]7CC(=O)N(C)C7)cccc65)n[nH]c4n3)CC2)[C@@H]1N [Compound 523] |
| < 1000 | C[C@@H]1OCC2(CCN(c3cnc4c(N5CCCc6nc(C7=CCNCC7)ccc65)n[nH]c4n3)CC2)[C@@H]1N [Compound 427, (3S,4S)-3-methyl-8-{3-[6-(1,2,3,6-tetrahydropyridin-4-yl)-1,2,3,4-tetrahydro-1,5-naphthyridin-1-yl]-1H-pyrazolo[3,4-b]pyrazin-6-yl}-2-oxa-8-azaspiro[4.5]decan-4-amine hydrochloride] |
| ≥ 10000 | CC1(N)CCN(c2cnc3c(Oc4cnccc4N)n[nH]c3n2)CC1 [Compound 507, 3-((6-(4-Amino-4-methylpiperidin-1-yl)-1H-pyrazolo[3,4-b]pyrazin-3-yl)oxy)pyridin-4-amine hydrochloride] |
